In patent US12410208B2, “(2-acetamidyl)thio-beta-D-galactopyranoside derivatives” (Idorsia Pharmaceuticals Ltd, priority 2020, dated 2025) one finds IC50 data, which are given here for 17 molecules.

Experiment [1] deals with biotinylated human Gal-3 (hGal-3) (Homo sapiens, UniProt P17931). The experiment can be described thus: Competitive binding assay: biotinylated hGal-3 binding to microplate-adsorbed asialofetuin (ASF), spectrophotometric. Particulars: Gal-3 inhibition, Table 5; read-out: IC50. Put shortly: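 Serially diluted compounds competed with asialofetuin on the plate for biotinylated human Gal-3 during a 3 h incubation at 4° C. Streptavidin-peroxidase with ABTS gave the spectrophotometric signal. IC50 values were averaged over repeat runs.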

Another experiment has as its target human Gal-1 (hGal-1) (Homo sapiens, UniProt P09382). Put plainly: Competitive binding assay: biotinylated hGal-1 binding to microplate-adsorbed asialofetuin (ASF), spectrophotometric. Particulars: hGal-1 binding to asialofetuin; Table 15; R and S epimers of selected Examples also listed; read-out: IC50 (Galectin-1 inhibition). Put shortly:
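Spectrophotometric competition readout with ABTS after streptavidin-peroxidase (80 ng/mL, 1 h, 4 °C) detection of bound biotinylated hGal-1.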

human Gal-1 (hGal-1), sequence (P09382 whole entry): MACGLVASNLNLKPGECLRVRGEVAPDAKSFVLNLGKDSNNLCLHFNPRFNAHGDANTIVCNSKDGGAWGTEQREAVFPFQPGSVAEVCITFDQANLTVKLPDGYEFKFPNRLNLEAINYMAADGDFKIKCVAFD
biotinylated human Gal-3 (hGal-3), sequence (P17931 whole entry): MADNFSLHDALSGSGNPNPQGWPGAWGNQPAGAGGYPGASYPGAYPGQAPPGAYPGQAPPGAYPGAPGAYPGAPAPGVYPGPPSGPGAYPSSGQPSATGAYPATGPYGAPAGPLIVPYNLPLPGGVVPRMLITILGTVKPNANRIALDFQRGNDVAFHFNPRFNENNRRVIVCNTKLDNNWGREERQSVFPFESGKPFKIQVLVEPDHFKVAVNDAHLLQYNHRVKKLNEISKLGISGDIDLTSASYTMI

The term IC50 denotes the concentration that gives 50% inhibition. With `CN(CC1CC1)C(=O)[C@H](S[C@@H]1O[C@H](CO)[C@H](O)[C@H](n2cc(-c3cc(F)c(F)c(F)c3)nn2)[C@H]1O)C1(O)CCC1` [Example 2.34.218R., (R)-N-(Cyclopropylmethyl)-2-(((2S,3R,4S,5R,6R)-3,5-dihydroxy-6-(hydroxymethyl)-4-(4-(3,4,5-trifluorophenyl)-1H-1,2,3-triazol-1-yl)tetrahydro-2H-pyran-2-yl)thio)-2-(1-hydroxycyclobutyl)-N-methylacetamide], the IC50 in experiment [1] is 6080 nM; on human Gal-1 (hGal-1) it was 20900 nM.
As to `CN(CC1CC1)C(=O)[C@@H](S[C@@H]1O[C@H](CO)[C@H](O)[C@H](n2cc(-c3cc(F)c(F)c(F)c3)nn2)[C@H]1O)C1(O)CCC1` [Example 2.34.218S., (S)-N-(Cyclopropylmethyl)-2-(((2S,3R,4S,5R,6R)-3,5-dihydroxy-6-(hydroxymethyl)-4-(4-(3,4,5-trifluorophenyl)-1H-1,2,3-triazol-1-yl)tetrahydro-2H-pyran-2-yl)thio)-2-(1-hydroxycyclobutyl)-N-methylacetamide], the concentration for half-maximal inhibition (IC50) in experiment [1] came out at 60 nM; at human Gal-1 (hGal-1), 70 nM.
In the case of `CN(CC(F)(F)F)C(=O)C(S[C@@H]1O[C@H](CO)[C@H](O)[C@H](n2cc(-c3cc(F)c(F)c(F)c3)nn2)[C@H]1O)C1(O)CCC1` (stereo partly drawn) [Example 2.34.219., 2-(((2S,3R,4S,5R,6R)-3,5-Dihydroxy-6-(hydroxymethyl)-4-(4-(3,4,5-trifluorophenyl)-1H-1,2,3-triazol-1-yl)tetrahydro-2H-pyran-2-yl)thio)-2-(1-hydroxycyclobutyl)-N-methyl-N-(2,2,2-trifluoroethyl)acetamide], the 50% inhibitory concentration (IC50) came to 260 nM in experiment [1] and 640 nM at human Gal-1 (hGal-1).
Regarding `CN(CC(F)(F)F)C(=O)[C@H](S[C@@H]1O[C@H](CO)[C@H](O)[C@H](n2cc(-c3cc(F)c(F)c(F)c3)nn2)[C@H]1O)C1(O)CCC1` [Example 2.34.219R., (R)-2-(((2S,3R,4S,5R,6R)-3,5-Dihydroxy-6-(hydroxymethyl)-4-(4-(3,4,5-trifluorophenyl)-1H-1,2,3-triazol-1-yl)tetrahydro-2H-pyran-2-yl)thio)-2-(1-hydroxycyclobutyl)-N-methyl-N-(2,2,2-trifluoroethyl)acetamide], the IC50 in experiment [1] amounted to 7840 nM; on human Gal-1 (hGal-1), 33600 nM.
Consider `CN(CC(F)(F)F)C(=O)[C@@H](S[C@@H]1O[C@H](CO)[C@H](O)[C@H](n2cc(-c3cc(F)c(F)c(F)c3)nn2)[C@H]1O)C1(O)CCC1` [Example 2.34.219S., (S)-2-(((2S,3R,4S,5R,6R)-3,5-Dihydroxy-6-(hydroxymethyl)-4-(4-(3,4,5-trifluorophenyl)-1H-1,2,3-triazol-1-yl)tetrahydro-2H-pyran-2-yl)thio)-2-(1-hydroxycyclobutyl)-N-methyl-N-(2,2,2-trifluoroethyl)acetamide], for which the values for the IC50 (in experiment [1]; at human Gal-1 (hGal-1)) were 110 nM and 120 nM, respectively.
In the same order, the values of `CN(CC(C)(C)F)C(=O)C(S[C@@H]1O[C@H](CO)[C@H](O)[C@H](n2cc(-c3cc(F)c(F)c(F)c3)nn2)[C@H]1O)C1(O)CCC1` (stereo partly drawn) [Example 2.34.222., 2-(((2S,3R,4S,5R,6R)-3,5-Dihydroxy-6-(hydroxymethyl)-4-(4-(3,4,5-trifluorophenyl)-1H-1,2,3-triazol-1-yl)tetrahydro-2H-pyran-2-yl)thio)-N-(2-fluoro-2-methylpropyl)-2-(1-hydroxycyclobutyl)-N-methylacetamide] are 410 nM and 220 nM.
With `CN(CC(C)(C)F)C(=O)[C@H](S[C@@H]1O[C@H](CO)[C@H](O)[C@H](n2cc(-c3cc(F)c(F)c(F)c3)nn2)[C@H]1O)C1(O)CCC1` [Example 2.34.222R., (R)-2-(((2S,3R,4S,5R,6R)-3,5-Dihydroxy-6-(hydroxymethyl)-4-(4-(3,4,5-trifluorophenyl)-1H-1,2,3-triazol-1-yl)tetrahydro-2H-pyran-2-yl)thio)-N-(2-fluoro-2-methylpropyl)-2-(1-hydroxycyclobutyl)-N-methylacetamide], the values for the 50% inhibitory concentration (IC50) (in experiment [1]; on human Gal-1 (hGal-1)) were 8610 nM and 46000 nM, respectively.
In the case of `CN(CC(C)(C)F)C(=O)[C@@H](S[C@@H]1O[C@H](CO)[C@H](O)[C@H](n2cc(-c3cc(F)c(F)c(F)c3)nn2)[C@H]1O)C1(O)CCC1` [Example 2.34.222S., (S)-2-(((2S,3R,4S,5R,6R)-3,5-Dihydroxy-6-(hydroxymethyl)-4-(4-(3,4,5-trifluorophenyl)-1H-1,2,3-triazol-1-yl)tetrahydro-2H-pyran-2-yl)thio)-N-(2-fluoro-2-methylpropyl)-2-(1-hydroxycyclobutyl)-N-methylacetamide], the IC50 stood at 90 nM in experiment [1] and 110 nM at human Gal-1 (hGal-1).
Regarding `CN(CC(C)(C)C)C(=O)C(S[C@@H]1O[C@H](CO)[C@H](O)[C@H](n2cc(-c3cc(F)c(F)c(F)c3)nn2)[C@H]1O)C1(O)CCC1` (stereo partly drawn) [Example 2.34.228., 2-(((2S,3R,4S,5R,6R)-3,5-Dihydroxy-6-(hydroxymethyl)-4-(4-(3,4,5-trifluorophenyl)-1H-1,2,3-triazol-1-yl)tetrahydro-2H-pyran-2-yl)thio)-2-(1-hydroxycyclobutyl)-N-methyl-N-neopentylacetamide], the results for the concentration for half-maximal inhibition (IC50) (in experiment [1]; at human Gal-1 (hGal-1)) were 310 nM and 160 nM, respectively.
In the case of `CN(CC(C)(C)C)C(=O)[C@H](S[C@@H]1O[C@H](CO)[C@H](O)[C@H](n2cc(-c3cc(F)c(F)c(F)c3)nn2)[C@H]1O)C1(O)CCC1` [Example 2.34.228R., (R)-2-(((2S,3R,4S,5R,6R)-3,5-Dihydroxy-6-(hydroxymethyl)-4-(4-(3,4,5-trifluorophenyl)-1H-1,2,3-triazol-1-yl)tetrahydro-2H-pyran-2-yl)thio)-2-(1-hydroxycyclobutyl)-N-methyl-N-neopentylacetamide], the results for the IC50 (in experiment [1]; at human Gal-1 (hGal-1)) were 5900 nM and 22600 nM, respectively.
With `CN(CC(C)(C)C)C(=O)[C@@H](S[C@@H]1O[C@H](CO)[C@H](O)[C@H](n2cc(-c3cc(F)c(F)c(F)c3)nn2)[C@H]1O)C1(O)CCC1` [Example 2.34.228S., (S)-2-(((2S,3R,4S,5R,6R)-3,5-Dihydroxy-6-(hydroxymethyl)-4-(4-(3,4,5-trifluorophenyl)-1H-1,2,3-triazol-1-yl)tetrahydro-2H-pyran-2-yl)thio)-2-(1-hydroxycyclobutyl)-N-methyl-N-neopentylacetamide], the figures for the half-maximal inhibitory concentration (IC50) (in experiment [1]; on human Gal-1 (hGal-1)) were 120 nM and 90 nM, respectively.
For the molecule `CCN(C)C(=O)C(S[C@@H]1O[C@H](CO)[C@H](O)[C@H](n2cc(-c3cc(F)c(F)c(F)c3)nn2)[C@H]1O)C1(O)CCCC1` (stereo partly drawn) [Example 2.38.203., 2-(((2S,3R,4S,5R,6R)-3,5-Dihydroxy-6-(hydroxymethyl)-4-(4-(3,4,5-trifluorophenyl)-1H-1,2,3-triazol-1-yl)tetrahydro-2H-pyran-2-yl)thio)-N-ethyl-2-(1-hydroxycyclopentyl)-N-methylacetamide], the results for the half-inhibitory concentration (IC50) (in experiment [1]; on human Gal-1 (hGal-1)) were 430 nM and 1130 nM, respectively.
On to `O=C(C(S[C@@H]1O[C@H](CO)[C@H](O)[C@H](n2cc(-c3cc(F)c(F)c(F)c3)nn2)[C@H]1O)C1(O)CCCC1)N1CCC1` (stereo partly drawn) [Example 2.38.206., 1-(Azetidin-1-yl)-2-(((2S,3R,4S,5R,6R)-3,5-dihydroxy-6-(hydroxymethyl)-4-(4-(3,4,5-trifluorophenyl)-1H-1,2,3-triazol-1-yl)tetrahydro-2H-pyran-2-yl)thio)-2-(1-hydroxycyclopentyl)ethan-1-one], for which the IC50 in experiment [1] amounted to 230 nM; on human Gal-1 (hGal-1), 770 nM.
Consider `CN(CC(F)(F)F)C(=O)C(S[C@@H]1O[C@H](CO)[C@H](O)[C@H](n2cc(-c3cc(F)c(F)c(F)c3)nn2)[C@H]1O)C1(O)CCCC1` (stereo partly drawn) [Example 2.38.219., 2-(((2S,3R,4S,5R,6R)-3,5-Dihydroxy-6-(hydroxymethyl)-4-(4-(3,4,5-trifluorophenyl)-1H-1,2,3-triazol-1-yl)tetrahydro-2H-pyran-2-yl)thio)-2-(1-hydroxycyclopentyl)-N-methyl-N-(2,2,2-trifluoroethyl)acetamide], for which the IC50 in experiment [1] came to 40 nM; at human Gal-1 (hGal-1), 110 nM.
With `CN(C(=O)C(S[C@@H]1O[C@H](CO)[C@H](O)[C@H](n2cc(-c3cc(F)c(F)c(F)c3)nn2)[C@H]1O)C1(O)CCCC1)C1CCC1` (stereo partly drawn) [Example 2.38.220., N-Cyclobutyl-2-(((2S,3R,4S,5R,6R)-3,5-dihydroxy-6-(hydroxymethyl)-4-(4-(3,4,5-trifluorophenyl)-1H-1,2,3-triazol-1-yl)tetrahydro-2H-pyran-2-yl)thio)-2-(1-hydroxycyclopentyl)-N-methylacetamide], the results for the half-inhibitory concentration (IC50) (in experiment [1]; on human Gal-1 (hGal-1)) were 30 nM and 20 nM, respectively.
Consider `CN(CC(C)(C)C)C(=O)C(S[C@@H]1O[C@H](CO)[C@H](O)[C@H](n2cc(-c3cc(F)c(F)c(F)c3)nn2)[C@H]1O)C1(O)CCCC1` (stereo partly drawn) [Example 2.38.228., 2-(((2S,3R,4S,5R,6R)-3,5-Dihydroxy-6-(hydroxymethyl)-4-(4-(3,4,5-trifluorophenyl)-1H-1,2,3-triazol-1-yl)tetrahydro-2H-pyran-2-yl)thio)-2-(1-hydroxycyclopentyl)-N-methyl-N-neopentylacetamide], for which the concentration for half-maximal inhibition (IC50) in experiment [1] was determined as 150 nM; at human Gal-1 (hGal-1), 170 nM.
As to `CCN(C)C(=O)C(S[C@@H]1O[C@H](CO)[C@H](O)[C@H](n2cc(-c3cc(F)c(F)c(F)c3)nn2)[C@H]1O)C1(O)CCCCC1` (stereo partly drawn) [Example 2.39.203., 2-(((2S,3R,4S,5R,6R)-3,5-Dihydroxy-6-(hydroxymethyl)-4-(4-(3,4,5-trifluorophenyl)-1H-1,2,3-triazol-1-yl)tetrahydro-2H-pyran-2-yl)thio)-N-ethyl-2-(1-hydroxycyclohexyl)-N-methylacetamide], the half-inhibitory concentration (IC50) was found to be 70 nM in experiment [1] and 170 nM on human Gal-1 (hGal-1).
